Measured values from article PMC4464647, “ANO1 (TMEM16A) in pancreatic ductal adenocarcinoma (PDAC)” (Pflugers Archiv, 2014).
d = 2'-deoxy (DNA)

Columns and labels:
Format in all cases: cell-based, human
[1] = system: VRAC; assay: Whole-cell patch-clamp of swelling-activated (VRAC) currents, hypotonic bath, 0 μM Ca2+ pipette; conditions: HPDE and BxPC-3 cells, inhibitor 20 μM, Vm = +65 mV
Description: Cells were grown on poly-L-lysine coated coverslips. For knockdown experiments, cells were transfected with siRNA targeting ANO1 or scrambled siRNA shortly after complete attachment of the cells (approx. 3 h after plating). Currents were measured 36–48 h after transfection. Whole-cell patch-clamp recordings were performed using the Axopatch 200B amplifier interfaced to a Digidata 1440A controlled by pClamp10 software (Molecular Devices, USA). Analogue signals were acquired at 2.5 kHz and filtered at 1 kHz. […] An agar bridge made of 3 % agar and 97 % of the bath solution containing NMDG-Cl (below) was used as reference electrode. Current activations were recorded from an output holding potential, V out = 0 mV with ramp protocols spanning from −100 to 100 mV over 1 s and run continuously with 15-s intervals. […] Liquid junction potentials (V lj) were estimated as described in [10] with membrane potentials calculated as, V m = V out − V lj. […] Instantaneous currents were measured 1 ms after each voltage step. […]
One micromolar free Ca^2+ pipette solution include the following (in mM): 100 CsAsp, 40 CsCl, 4.34 CaCl2, 4 Na2ATP, 1 MgCl2, 5 EGTA, 10 HEPES, pH 7.2, osmolality 295 mosmol/kg or 0 μM free Ca^2+ solution containing no CaCl2 and 10 mM EGTA. […] All osmolalities were measured in a Wescor Vapro model 5520 osmometer (Wescor Inc., USA) calibrated by the manufacturer’s Optimol standard solutions. […]

[2] = system: HPDE, Capan-1, AsPC-1, and BxPC-3 cells; assay: BrdU incorporation cell proliferation assay, all tested cell lines
Description: To assess cell proliferation and apoptosis, cells were plated in duplicates on a 96-well plate and incubated in 100 μl of the cell line appropriate media described above. Cells were transfected with siRNA soon after complete attachment (approx. 3 h after seeding). Cells were treated with vehicle, 20 μM gemcitabine, 20 μM T16Ainh-A01, or 10 μM free NS3728 (see below) after culture in a humidified 37 °C and 5 % CO2 incubator overnight. BrdU incorporation was measured using Cell Proliferation ELISA, BrdU (chemiluminescent) (Roche Diagnostics A/S, Denmark) following the manufacturer’s instructions. Caspases 3, 6, and 7 activation was evaluated using Homogeneous Caspases Assay (fluorimetric) (Roche Diagnostics A/S, Denmark).
Fig. 7 VRAC, but not ANO1, regulates cellular proliferation. a Summary of BrdU incorporation in HPDE, Capan-1, AsPC-1, and BxPC-3 cells after various treatments as indicated. Cells were transfected shortly after complete attachment (approx. 3 h) and BrdU incorporation was assessed 36 h after transfection. To investigate effect of inhibitors, cells were incubated for 24 h with respective inhibitor. Values shown are relative to appropriate control. Data shown represents mean ± s.e.m. of n = 4–6 individual experiments. **p ≤ 0.01 and ***p ≤ 0.001 when compared with control

[3] = system: BxPC-3 cells; assay: Scratch wound healing assay; conditions: 5 μM aphidicolin; for effect on wound closure / migratory behavior: BxPC-3, inhibitor 20 μM
Description: Cells were seeded into Essen ImageLock 96-well plates. Cells were transfected with siRNA shortly after cells completely attached at 80 % confluency. […] The wound confluence was obtained and analyzed by using the IncuCyte phase-contrast imaging and scratch wound assay system and software (Essen Bioscience, USA). Wound closure was assessed by comparing the mean relative wound density (%RWD) according to the following formula: % RWD = 100 × w(t) − w(0)/[…]. Here, w(t) is the density of wounded area at time t and c(t) is the density of cell region at time t. Each experiment was conducted in triplicates.
We therefore assessed a possible contribution of ANO1 in PDAC cell migration using wound healing assay. […] The experiments were conducted in the presence of 5 μM aphidicolin to rule out a possible effect on cell proliferation. […] AsPC-1 cells were therefore not well suited for studies of lateral motility.
Fig. 9 ANO1 supports migration of PDAC cells. Wound healing assay is shown as relative wound density (density of wounded area relative to confluency of cell region) over time. Aphidicolin (5 μM) was added to stop proliferation. a AsPC-1 cells and b BxPC-3 cells after transfection with either scrambled siRNA (5 nM) or siRNA targeting ANO1 (50 nM). c BxPC-3 cells in presence of different inhibitors. Data shown represents mean ± s.e.m. of n = 4 experiments; each run was carried out in triplicates

Row | Compound | effect on VRAC currents [1] | proliferation (BrdU incorporation) ([2]; ANO1-overexpressing cancer cells, 20 μM, 24 h) | effect on wound closure / migratory behavior [3] | proliferation (BrdU incorporation) ([2]; siRNA 50 nM vs mock 5 nM, 36 h after transfection, any of the tested cell lines) | migration decreased to ([3]; BxPC-3, siRNA 50 nM, after 60 h)
1 | CCc1c(C)nc(SCC(=O)Nc2nc(-c3ccc(OC)cc3)cs2)[nH]c1=O [T16Ainh-A01, 2-[(5-Ethyl-1,6-dihydro-4-methyl-6-oxo-2-pyrimidinyl)thio]-N-[4-(4-methoxyphenyl)-2-thiazolyl]acetamide] | Neither T16Ainh-A01 nor CaCCinh-A01 inhibited the VRAC currents significantly | none of the ANO1-overexpressing cancer cells showed any significant decrease in proliferation | no detectable effect on migratory behavior | – | –
2 | siRNA targeting ANO1: Predesigned siRNA oligo from Sigma-Aldrich, 5′-CCUUCAACGUCAGUGACUU[dT][dT]-3′, 5′-AAGUCACUGACGUUGAAGG[dT][dT]-3′ (RNA, 3' dTdT, backbone not given here) | – | – | – | did not cause any significant change in proliferation | 30 ± 8%
3 | CC(C)(C)C1CCc2c(sc(NC(=O)c3ccco3)c2C(=O)O)C1 (stereo not shown) [CaCCinh-A01, 6-(1,1-dimethylethyl)-2-[(2-furanylcarbonyl)amino]-4,5,6,7-tetrahydrobenzo[b]thiophene-3-carboxylic acid] | Neither T16Ainh-A01 nor CaCCinh-A01 inhibited the VRAC currents significantly | – | seemed to slow down wound closure; however, this did not reach significance | – | –
